{"source": "patent US20140228423A1", "about": "“BIOMARKERS AND THERAPY FOR CANCER” (BAYLOR COLLEGE OF MEDICINE, priority 2011, published 2014)", "tested_on": "OVCAR8 cells", "test": "High-throughput screen of Prestwick Chemical Library with or without YM155", "experimental": "High-throughput screen for drugs that synergize with YM155. […] Digitonin (0.8 mg/ml) was used as a positive control for ˜100% cell death. […] The relative synergy for each drug was then calculated by subtracting measured cell survival of combinatorial treatment from the calculated c value.\nTo identify additional small molecules that synergize with YM155, a small library screen was performed.", "data": [{"smiles": "C[C@@H]1CC[C@@]2(OC1)O[C@H]1[C@@H](O)[C@H]3[C@@H]4CC[C@H]5C[C@@H](O[C@@H]6O[C@H](CO)[C@H](O[C@@H]7O[C@H](CO)[C@@H](O)[C@H](O[C@@H]8OC[C@@H](O)[C@H](O)[C@H]8O)[C@H]7O[C@@H]7O[C@H](CO)[C@H](O)[C@H](O[C@@H]8O[C@H](CO)[C@@H](O)[C@H](O)[C@H]8O)[C@H]7O)[C@H](O)[C@H]6O)[C@H](O)C[C@]5(C)[C@H]4CC[C@]3(C)[C@H]1[C@@H]2C", "note": "[Digitonin]", "values": [{"measurement": "cell death", "setting": "0.8 mg/ml, positive control", "value": "~100", "unit": "%"}]}, {"smiles": "COc1cc(/C=C/C(=O)N2CCC=CC2=O)cc(OC)c1OC", "note": "[Piperlongumine]", "values": [{"measurement": "cell survival", "setting": "concentration of 6.3 mM", "value": "10 % of the control"}]}]}
